Test results as given in patent publication US8759308B2, “RNAi probes targeting cancer-related proteins” (The University of British Columbia, priority 2002, dated 2014).
d = 2'-deoxy (DNA); r = 2'-OH (RNA)

Assays:
IGFBP-5 transcript [1] = assay: IGFBP-5 transcript by RT-PCR in PC3 cells; type: cell-based, human; conditions: 10, 50 and 100 nM
Experimental: PC3 cells were transfected with various doses (10, 50 and 100 nM) of the 3 species of bispecies siRNA (BS-1, BS-2 and BS-3) or scrambled control. A vehicle only control was also evaluated. Total. RNA was extracted and analyzed by RT-PCR for IGFBP-5 transcript.

IGFBP-5 transcript [2] = assay: IGFBP-5 transcript by RT-PCR in primary human bone fibroblasts; type: cell-based; conditions: 50 nM
Experimental: Primary human bone fibroblasts were transfected with 50 nM of the 3 species of bispecific siRNA (BS-1, BS-2 and BS-3) or scrambled control. A vehicle only and an untreated control were was also evaluated. Total RNA was extracted and analyzed by RT-PCR for IGFBP-5 transcript.

CLU mRNA and protein = assay: CLU gene silencing by siRNA in PC3 cells (RNA blot, immunoblot); type: cell-based, human; conditions: sequence-dependent but dose-independent
Experimental: (§1) Alternatively, in PC3 cells Lipofectin™ (Invitrogen Life technologies Inc., San Diego, Calif.) was used to enhance transfection with the Cl-III and CL-V oligonucleotides. PC3 cells were treated with 10, 50, or 100 nM of the RNA duplexes after pre-incubation with 4 μg/ml of […] reagent in serum free OptiMEM® I for 20 minutes. Four hours after starting the incubation, the medium containing the RNA duplexes and Lipofectin was replaced with standard tissue culture medium. Cells were treated once on day 1 and then harvested 48 h after treatment on day 3. In all cases controls used included: (a) the usage of the Sc-I and Sc-II RNA duplexes and (b) mock transfections in the absence of a nucleic acid (Con-I). CLU gene silencing was assayed by RNA blot analysis, immunoblotting analysis or confocal immunofluorescence.
Effects of CLU gene silencing in PC-3 prostate cancer cells were determined. Having established the significant effects of CLU knock down in OS cells, we then applied CLU siRNA in PC3 human prostate cancer cells. PC3 cells are p53 null (Rohlff, et al., Prostate 37: 51-59 (1998)) and express relatively low endogenous amount of the s-CLU protein form similar to the Sa OS cells. In PC3 cells, apart from employing the Cl-I and Cl-II oligonucleotides, we also tested two additional CLU-specific siRNA oligonucleotides (Cl-III, Cl-V). […]

CLU protein = assay: CLU gene silencing by siRNA in OS cells (immunoblotting); type: cell-based, human; conditions: for CLU protein accumulation following exposure to DXR: KH OS and U-2 OS cells, DXR for 24 h in presence of siRNA; for knock-down of secreted CLU (s-CLU) protein form: OS cells; for cellular CLU protein levels / CLU gene silencing: three OS cell lines, 100 nM siRNA duplex, 2-3 days
Excerpt: The human clusterin cDNA was manually scanned in order to identify sequences of the AA(N19)UU (N, any nucleotide) type that fulfill the required criteria for siRNA (Harbourth et al., J Cell Sci 114: 4557-4560 (2001)). Two such sequences with symmetric 2-nt 3′ overhangs, were found 433 (Cl-I) and 644 (Cl-II) nts downstream of the CLU gene transcription initiation codon. Two additional oligonucleotides used targeted a region 1620 nts downstream of the CLU gene transcription initiation codon (Cl-III) and the human CLU transcription initiation site (Cl-V) (see Table). […] Selected RNA oligos were synthesized by Dharmacon Research, Inc. (Lafayette, Colo.), diluted at a 20 μM final concentration in RNasefree ddH2O and stored at −20° C. The Scramble-I™ (Sc-I) (D-1200-20) and Scramble-II™ (Sc-II) (D-1205-20) oligonucleotides used were purchased from Dharmacon Research, Inc.
siRNA transfection of the Cl-I, Cl-II and scrambled RNA duplexes in exponentiary growing OS cells was performed as described (Harbourth et al., Tuschl et al., Genes Dev. 13: 3191-3197 (1999)). Briefly, cells were seeded the day before siRNA transfection in 24-well plates containing 500 μl complete medium and were ˜40-50% confluent during transfection. For the transfection mixture 100 nM of siRNA duplex per well were used. The RNA duplex was diluted in Opti-MEM® I (Gibco Life Technologies, Inc., San Diego, Calif.) serum free medium and transfection efficiency was enhanced by using the Oligofectamine™ reagent (Invitrogen Life technologies Inc., San Diego, Calif.). When cells were treated with both Cl-i and Cl-II oligonucleotides, 100 nM of each siRNA duplex were used. Cell treatment with the siRNA oligonucleotides lasted for 2-3 days.
as §1
Efficient silencing of the CLU gene expression in OS cells is achieved using siRNA.

[3] = test system: 55 kDa n-CLU protein form; assay: Expression of n-CLU protein form after siRNA; type: cell-based, human; conditions: KH OS and U-2 OS cells
Excerpt: (§2) OS cells sensitization to genotoxic and oxidative stress due to CLU gene silencing is related to activation of the cellular apoptotic machinery. […] We assume that the explanation of this effect relies on our observation that the n-CLU protein is extremely stable.

[4] = test system: 49 kDa c-CLU protein form; assay: Expression of c-CLU protein form after siRNA; type: cell-based, human; conditions: KH OS and U-2 OS cells
Excerpt: as §2

clusterin transcript [5] = assay: Clusterin transcript by Northern blot in PC3 cells; type: cell-based, human; conditions: all doses (10, 50 or 100 nM), two days
Experimental: PC3 cells were treated (1 pulse) with CLU-3 (Seq ID NOs. 5 and 6) or CLU-5 (Seq ID Nos 9 and 10) or with a scrambled control at levels of 10, 50 or 100 nM, or with oligoFECTAMINE™ only. After two days total RNA was extracted and analyzed for clusterin and GADPH by Northern blotting. Densitometric measurement was performed. FIG. 10 presents results of these measurements after normalization to GADPH.

clusterin transcript [6] = assay: Clusterin transcript by Real Time PCR in PC3 cells; type: cell-based, human; conditions: 10, 50 or 100 nM, two days
Experimental: (§3) PC3 cells were transfected with siRNA at levels of 10, 50 or 100 nM or with 100 nM scrambled control. Two days after transfection, total RNA was extracted and the level of clusterin transcript was quantified by Real Time PCR.

clusterin transcript [7] = assay: Clusterin transcript by Real Time PCR in A549 cells; type: cell-based, human; conditions: 10, 50 or 100 nM, two days
Experimental: as §3
The experiment of Example 9 was repeated using A549 cells in place of PC3 cells.

PC3 cells = assay: PC3 cell viability with siRNA and Taxol, MTT assay; type: cell-based, human; conditions: 25 nM siRNA, then Taxol three days
Experimental: PC3 cells were treated once with 25 nM human clusterin siRNAs (CLU-3 and CLU-5), a scrambled control, or oligoFECTAMINE™ only. After two days of treatment, the medium was replaced with medium containing various concentrations of Taxol (Paclitaxel). After three days of incubation, cell viability was determined by MTT assay. FIG. 11 summarizes the results.

Substance: BS-3: IGFBP-2 and -5 bispecific siRNA, double-stranded RNA from Seq. ID NOs. 43 and 44 (chain 1 CCAGGGGCUGCGCUGCTT; chain 2 GCAGCGCAGCCCCUGGTT; sugars from the 5' end r16 d2, backbone not given here)
- amount of IGFBP-5 transcript (IGFBP-5 transcript [1]): reduction in the amount of IGFBP-5 transcript
- amount of IGFBP-5 transcript (IGFBP-5 transcript [2]): reduction in the amount of IGFBP-5 transcript

Substance: Cl-III: clusterin siRNA duplex, SEQ. ID No: 64 and 65; targets region 1620 nts downstream of initiation codon (chain 1 CUAAUUCAAUAAAACUGUCTT; chain 2 GACAGUUUUAUUGAAUUAGTT; sugars from the 5' end r19 d2, backbone not given here)
- silencing CLU RNA and protein expression (CLU mRNA and protein): quite effective

Substance: Cl-V: clusterin siRNA duplex targeting the human CLU transcription initiation site; Table 7 Cl-IV, SEQ. ID No: 67 and 68 (chain 1 AUGAUGAAGACUCUGCUGC; chain 2 GCAGCAGAGUCUUCAUCAU; RNA, backbone not given here) [clusterin siRNA duplex targeting the human CLU transcription initiation site; ID No: 67 and 68]
- silencing CLU RNA and protein expression (CLU mRNA and protein): quite effective

Substance: BS-2: IGFBP-2 and -5 bispecific siRNA, double-stranded RNA from Seq. ID NOs. 41 and 42 (chain 1 CGUGCGGCGUCUACACCTT; chain 2 GGUGUAGACGCCGCACGTT; sugars from the 5' end r17 d2, backbone not given here)
- amount of IGFBP-5 transcript (IGFBP-5 transcript [1]): reduction in the amount of IGFBP-5 transcript
- amount of IGFBP-5 transcript (IGFBP-5 transcript [2]): reduction in the amount of IGFBP-5 transcript

Substance: Cl-I: clusterin siRNA duplex, SEQ. ID No: 58 and 59; target 433 nts downstream of CLU transcription initiation codon (chain 1 CCAGAGCUCGCCCUUCUACTT; chain 2 GUAGAAGGGCGAGCUCUGGTT; sugars from the 5' end r19 d2, backbone not given here)
- CLU protein accumulation following exposure to DXR (CLU protein): effectively abolished
- effectiveness in silencing the CLU gene, Cl-I compared with Cl-II (CLU protein; OS cell lines): slightly more effective than Cl-II
- knock-down of secreted CLU (s-CLU) protein form (CLU protein): specifically knock-down
- cellular CLU protein levels / CLU gene silencing (CLU protein): knocking down significantly
- effect on putative 55 kDa n-CLU protein form [3]: did not exert any significant effect
- effect on 49 kDa c-CLU protein form level [4]: minor effect

Substance: CLU3: clusterin siRNA, double-stranded RNA from Seq. ID NOs. 5 and 6 (chain 1 CUAAUUCAAUAAAACUGUCTT; chain 2 GACAGUUUUAUUGAAUUAGTT; sugars from the 5' end r19 d2, backbone not given here)
- amount of clusterin transcript normalized to GADPH (clusterin transcript [5]): Reduction in the amount of clusterin transcript
- amount of clusterin transcript (clusterin transcript [6]): reduction in the amount of clusterin transcript
- amount of clusterin transcript (clusterin transcript [7]): reduction in the amount of clusterin transcript
- viable cells with siRNA plus Taxol (PC3 cells): worked in synergy

Substance: CLU1: clusterin siRNA, double-stranded RNA from Seq. ID NOs. 1 and 2 (chain 1 CCAGAGCUCGCCCUUCUACTT; chain 2 GUAGAAGGGCGAGCUCUGGTT; sugars from the 5' end r19 d2, backbone not given here)
- amount of clusterin transcript (clusterin transcript [6]): reduction in the amount of clusterin transcript
- amount of clusterin transcript (clusterin transcript [7]): reduction in the amount of clusterin transcript

Substance: BS-1: IGFBP-2 and -5 bispecific siRNA, double-stranded RNA from Seq. ID NOs. 39 and 40 (chain 1 GGAGCCGGGCUGCGGCUGCTT; chain 2 GCAGCCGCAGCCCGGCUCCTT; sugars from the 5' end r19 d2, backbone not given here)
- amount of IGFBP-5 transcript (IGFBP-5 transcript [1]): reduction in the amount of IGFBP-5 transcript
- amount of IGFBP-5 transcript (IGFBP-5 transcript [2]): reduction in the amount of IGFBP-5 transcript

Substance: Cl-II: clusterin siRNA duplex, SEQ. ID No: 61 and 62; target 644 nts downstream of CLU transcription initiation codon (chain 1 GUCCCGCAUCGUCCGCAGCTT; chain 2 GCUGCGGACGAUGCGGGACTT; sugars from the 5' end r19 d2, backbone not given here)
- CLU protein accumulation following exposure to DXR (CLU protein): effectively abolished
- knock-down of secreted CLU (s-CLU) protein form (CLU protein): specifically knock-down
- cellular CLU protein levels / CLU gene silencing (CLU protein): knocking down significantly
- effect on putative 55 kDa n-CLU protein form [3]: did not exert any significant effect
- effect on 49 kDa c-CLU protein form level [4]: minor effect
